According to publication PMC4669708 (Cell Death & Disease, 2015):

How the values were obtained:
Assay in all cases: c-ponatinib pulldown LC-MS/MS
Assay type in all cases: binding
JAK2 = JAK2 (Homo sapiens, UniProt O60674)
Summary of the method: (§1)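 c-Ponatinib (25 nmol) immobilized on NHS-Sepharose was incubated with 10 mg whole cell lysate per replicate, in duplicate. Eluates were reduced, alkylated, trypsin-digested and analysed by gel-free 1D LC-MS/MS. Specificity was scored from Mascot, Phenyx and spectral counts, with competition by free compound.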

PAG1 = biological target: T1, PAG1 (Homo sapiens, UniProt Q9NWQ8)
T1 sequence (Q9NWQ8 1-432): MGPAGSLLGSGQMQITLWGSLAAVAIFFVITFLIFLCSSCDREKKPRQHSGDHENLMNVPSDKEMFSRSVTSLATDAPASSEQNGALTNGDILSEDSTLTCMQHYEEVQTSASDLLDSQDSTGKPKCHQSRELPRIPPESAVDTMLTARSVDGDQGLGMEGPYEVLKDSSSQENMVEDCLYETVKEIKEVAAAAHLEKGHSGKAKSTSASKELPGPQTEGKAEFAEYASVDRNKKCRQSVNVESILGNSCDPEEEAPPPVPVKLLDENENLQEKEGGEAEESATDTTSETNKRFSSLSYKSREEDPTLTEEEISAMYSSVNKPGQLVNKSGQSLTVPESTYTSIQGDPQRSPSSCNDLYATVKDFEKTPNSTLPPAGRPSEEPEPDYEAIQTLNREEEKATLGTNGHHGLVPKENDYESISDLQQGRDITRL
Summary of the method: as §1

TESK2 = TESK2 (Homo sapiens, UniProt Q96S53)
Summary of the method: as §1

YWHAE = biological target: T2, YWHAE (Homo sapiens, UniProt P62258)
T2 sequence (P62258 1-255): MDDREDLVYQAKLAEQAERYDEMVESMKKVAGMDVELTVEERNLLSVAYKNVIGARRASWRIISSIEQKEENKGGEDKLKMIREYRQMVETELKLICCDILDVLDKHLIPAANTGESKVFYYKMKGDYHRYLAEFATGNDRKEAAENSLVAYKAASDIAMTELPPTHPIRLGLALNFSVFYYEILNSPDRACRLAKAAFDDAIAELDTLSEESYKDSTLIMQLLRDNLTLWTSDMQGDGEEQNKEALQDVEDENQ
Summary of the method: as §1

TESK2, sequence (Q96S53 whole entry): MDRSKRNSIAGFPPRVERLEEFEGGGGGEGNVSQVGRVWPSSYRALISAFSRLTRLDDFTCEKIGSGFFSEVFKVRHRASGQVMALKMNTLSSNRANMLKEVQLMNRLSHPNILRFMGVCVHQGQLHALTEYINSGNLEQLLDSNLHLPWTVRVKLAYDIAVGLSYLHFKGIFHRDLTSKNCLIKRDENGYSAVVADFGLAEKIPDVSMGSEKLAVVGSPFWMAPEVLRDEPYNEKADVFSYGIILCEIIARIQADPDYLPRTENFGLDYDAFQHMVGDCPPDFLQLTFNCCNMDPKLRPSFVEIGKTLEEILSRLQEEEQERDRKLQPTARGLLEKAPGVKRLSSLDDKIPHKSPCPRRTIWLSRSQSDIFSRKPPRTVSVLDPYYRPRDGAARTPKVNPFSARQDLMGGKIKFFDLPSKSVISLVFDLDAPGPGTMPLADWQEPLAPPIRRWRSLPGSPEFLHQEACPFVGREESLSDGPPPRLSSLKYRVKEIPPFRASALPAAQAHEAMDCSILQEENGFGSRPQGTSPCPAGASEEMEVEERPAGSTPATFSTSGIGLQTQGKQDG
JAK2, sequence (O60674 whole entry): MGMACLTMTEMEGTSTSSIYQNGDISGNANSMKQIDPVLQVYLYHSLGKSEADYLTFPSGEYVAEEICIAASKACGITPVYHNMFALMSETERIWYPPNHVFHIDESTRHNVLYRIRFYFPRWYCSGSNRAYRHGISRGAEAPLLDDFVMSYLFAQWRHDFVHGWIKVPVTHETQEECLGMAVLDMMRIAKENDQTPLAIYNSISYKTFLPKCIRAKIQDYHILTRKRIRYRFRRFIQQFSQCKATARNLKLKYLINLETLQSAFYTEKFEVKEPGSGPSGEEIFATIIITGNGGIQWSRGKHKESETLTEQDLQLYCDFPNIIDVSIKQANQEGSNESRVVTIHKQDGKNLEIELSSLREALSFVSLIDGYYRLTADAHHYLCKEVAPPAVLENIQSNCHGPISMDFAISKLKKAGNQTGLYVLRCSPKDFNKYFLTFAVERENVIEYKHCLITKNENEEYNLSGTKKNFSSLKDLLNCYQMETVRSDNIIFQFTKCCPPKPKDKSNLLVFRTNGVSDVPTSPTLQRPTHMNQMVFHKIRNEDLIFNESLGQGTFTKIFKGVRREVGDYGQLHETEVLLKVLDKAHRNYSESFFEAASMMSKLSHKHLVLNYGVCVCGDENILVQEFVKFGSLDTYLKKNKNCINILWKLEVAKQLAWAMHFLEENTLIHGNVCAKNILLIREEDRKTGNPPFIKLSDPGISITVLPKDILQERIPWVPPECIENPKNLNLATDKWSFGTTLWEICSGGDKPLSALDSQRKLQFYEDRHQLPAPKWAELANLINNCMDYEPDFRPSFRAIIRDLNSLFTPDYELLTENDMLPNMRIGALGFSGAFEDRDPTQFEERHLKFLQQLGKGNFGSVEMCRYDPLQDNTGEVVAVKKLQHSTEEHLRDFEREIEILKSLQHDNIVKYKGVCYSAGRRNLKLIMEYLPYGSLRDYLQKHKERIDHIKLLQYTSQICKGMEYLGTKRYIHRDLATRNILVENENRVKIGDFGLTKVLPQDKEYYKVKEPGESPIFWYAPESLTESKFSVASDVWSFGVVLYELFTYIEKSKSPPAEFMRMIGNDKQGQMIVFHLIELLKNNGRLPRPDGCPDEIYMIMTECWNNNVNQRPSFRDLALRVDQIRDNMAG

Av. SC comp. (JAK2; + free ponatinib): 0 | Total SC comp. (JAK2; + free ponatinib): 0 | Av. SC (JAK2; no competitor): 2.25 | Total SC (JAK2; no competitor): 9 | Av. SC comp. (PAG1; + free ponatinib): 0 | Total SC comp. (PAG1; + free ponatinib): 0 | Av. SC (PAG1; no competitor): 2 | Total SC (PAG1; no competitor): 8 | Av. SC comp. (TESK2; + free ponatinib): 0 | Total SC comp. (TESK2; + free ponatinib): 0 | Av. SC (TESK2; no competitor): 5 | Total SC (TESK2; no competitor): 20 | Av. SC comp. (YWHAE; + free ponatinib): 1 | Total SC comp. (YWHAE; + free ponatinib): 4 | Av. SC (YWHAE; no competitor): 13 | Total SC (YWHAE; no competitor): 52
Structure (SMILES): Cc1ccc(C(=O)Nc2ccc(CN3CCN(CCCN)CC3)c(C(F)(F)F)c2)cc1C#Cc1cnc2cccnn12 [c-ponatinib]
